Laboratory results reported in patent EP1948196B1, “USE OF TETRAORGANOSILICON COMPOUNDS” (Salama, Zoser B., priority 2005, dated 2007).
In brackets after ≈: the same amount, converted by molar mass. Numbered stars: 1 amine (or outer) side, 2 acyl side, 3 side chain; on linkers, the order of the positions; unused ones are H or OH. Bridge positions count the residues as written; N and C are the ends. Peptide text beside a SMILES is read from it. I, II: the chains in the order shown. OSiEt2O = CC[Si](CC)(O[*:1])O[*:2]

What was measured:
[1] = system: IEC6 - mausartige Enterozyten; assay: MTT assay / EZ4U test, 4 days; type: cell-based; details: for IC50: Rattus norvegicus, IEC-6, read-out: IC50 IEC6
Procedure: (§1) Die Silane 1, 5, 9, 10, 11, 13, 15, 16 wurden in Ethanol gelöst und in MTT Assays in einer anfänglichen Konzentration von 200 µg/ml (5 Lösungsschritte 200 - 12.5 µg/ml) verwendet. Die Platten wurde für eine Dauer.von 4 Tagen inkubiert und die Entwicklungsfähigkeit mithilfe des EZ4U Test bestimmt. Die IC50 Werte wurden ausgehend von Dosierungs-Reaktions-Linien berechnet Zelllinien: Colo 205 and HT29 - Kolonkarzinom; BxPC3 and MIAPaCa2 - Pankreaskrebs; CRO2B - karzinoid, A431 Epidermalkarzinom; normale Zellen: WI38 - humane embryonale Fibroblasten; NIH3T3 - mausartige Fibroblasten; IEC6 - mausartige Enterozyten.

HT29 - Kolonkarzinom = assay: MTT assay / EZ4U test, 4 days; type: cell-based; details: for IC50: Homo sapiens, HT-29, read-out: IC50 HT29
Procedure: as §1

Colo 205 - Kolonkarzinom = assay: MTT assay / EZ4U test, 4 days; type: cell-based; details: for IC50: Homo sapiens, COLO 205, read-out: IC50 Colo205
Procedure: as §1

BxPC3 - Pankreaskrebs = assay: MTT assay / EZ4U test, 4 days; type: cell-based; details: for IC50: Homo sapiens, BXPC-3, read-out: IC50 BxPC3
Procedure: as §1

MIAPaCa2 - Pankreaskrebs = assay: MTT assay / EZ4U test, 4 days; type: cell-based; details: for IC50: Homo sapiens, MIA PaCa-2, read-out: IC50 MlAPaCa2
Procedure: as §1

CRO2B - karzinoid = assay: MTT assay / EZ4U test, 4 days; type: cell-based; details: for IC50: read-out: IC50 CR02B
Procedure: as §1

[2] = system: WI38 - humane embryonale Fibroblasten; assay: MTT assay / EZ4U test, 4 days; type: cell-based; details: for IC50: Homo sapiens, WI-38, read-out: IC50 WI38
Procedure: as §1

A431 Epidermalkarzinom = assay: MTT assay / EZ4U test, 4 days; type: cell-based; details: for IC50: Homo sapiens, A-431, read-out: IC50 A431
Procedure: as §1

[3] = system: NIH3T3 - mausartige Fibroblasten; assay: MTT assay / EZ4U test, 4 days; type: cell-based; details: for IC50: Mus musculus, NIH3T3, read-out: IC50 NIH3T3
Procedure: as §1

Normale Zellen = assay: Mean IC50 over all normal cell lines; type: cell-based; details: for IC50: read-out: IC50 Normale Zellen (Durchschnitt ± SD)
Procedure: as §1
(§2) Mittelwerte-IC50 für alle Krebs- oder normalen Zelllinien: […]

Krebszellen = assay: Mean IC50 over all cancer cell lines; type: cell-based; details: for IC50: read-out: IC50 Krebszellen (Durchschnitt ± SD)
Procedure: as §1, §2

Colo205 Kolonkarzinom = assay: subG1 apoptotic fraction, propidium iodide, flow cytometry; type: cell-based; details: 50 µg/ml, 4 Tage
Procedure: (§3) Die Zellen (IEC6 mausartige Enterozyten; Panc1 Pankreaskrebszellen; Colo205 Kolonkarzinom) wurden mit 50 µg/ml Silanen inkubiert und nach 4-tägiger Aussetzung auf DNA eingefärbt (Propidiumiodid). Die SubG1 Zellteilung wurde mittels Durchflusscytometrie bestimmt.

[4] = system: Panc1 Pankreaskrebszellen; assay: as above; type: cell-based; details: 50 µg/ml, 4 Tage
Procedure: as §3

T47D (Brustkrebs) = assay: MTT test, triplicate, two-fold dilutions; type: cell-based; details: for IC50: Homo sapiens, T47D, read-out: IC50 T47D
Procedure: (§4) Die Silan wurden in Ethanol aufgelöst und in Zellkulturmedien in Konzentrationen von bis zu 500 µg/ml resuspendiert. Es wurden MTT Tests in dreifacher Ausführung durchgeführt, für welche doppelte Lösungen (7 Schritte) und colo205 (Kofon-Karzinom), BxPC3 (pankreatisches Adenokarzinom) sowie T47D (Brustkrebs) benutzt wurden.

[5] = system: BxPC3 (pankreatisches Adenokarzinom); assay: MTT test, triplicate, two-fold dilutions; type: cell-based; details: for IC50: Homo sapiens, BXPC-3, read-out: IC50 BxPC3
Procedure: as §4

colo205 (Kofon-Karzinom) = assay: MTT test, triplicate, two-fold dilutions; type: cell-based; details: for IC50: Homo sapiens, COLO 205, read-out: IC50 Colo205
Procedure: as §4

[6] = system: IEC6 mausartige Enterozyten; assay: subG1 apoptotic fraction, propidium iodide, flow cytometry; type: cell-based; details: 50 µg/ml, 4 Tage
Procedure: as §3

Medulloblastome = assay: Effect on medulloblastomas

Row | SMILES | IC50 [1] | IC50 (HT29 - Kolonkarzinom) | IC50 (Colo 205 - Kolonkarzinom) | IC50 (BxPC3 - Pankreaskrebs) | IC50 (MIAPaCa2 - Pankreaskrebs) | IC50 (CRO2B - karzinoid) | IC50 [2] | IC50 (A431 Epidermalkarzinom) | IC50 [3] | IC50 (Normale Zellen) | IC50 (Krebszellen) | subG1 apoptotische Zellteilung Colo205 (Colo205 Kolonkarzinom) | subG1 apoptotische Zellteilung Panc1 [4] | IC50 (T47D (Brustkrebs)) | IC50 [5] | IC50 (colo205 (Kofon-Karzinom)) | subG1 apoptotische Zellteilung IEC6 [6] | also measured
1 | CCCCCCCCCCCCCCCCCC(=O)O[Si](CC)(CC)OC(=O)CCCCCCCCCCCCCCCCC [Si13, Di (octadecanoyloxy) diethylsilan] | 17 µg/mL (≈ 26 µM) | 18.3 µg/mL (≈ 28 µM) | 47.5 µg/mL (≈ 72.7 µM) | 17.5 µg/mL (≈ 26.8 µM) | 110 µg/mL (≈ 168 µM) | 17.8 µg/mL (≈ 27.3 µM) | 16.5 µg/mL (≈ 25.3 µM) | 15.9 µg/mL (≈ 24.3 µM) | 20.6 µg/mL (≈ 31.5 µM) | 18 µg/mL (≈ 27.6 µM) | 17.3 µg/mL (≈ 26.5 µM) | 4,8 ± 0,49 | 36,7 ± 0,5 | 8 µg/mL (≈ 12.2 µM) | 10 µg/mL (≈ 15.3 µM) | 125 µg/mL (≈ 191 µM) |  | 
2 | CCCCCCCCCCCCCCCCC(=O)O[Si](CC)(CC)OC(=O)CCCCCCCCCCCCCCCC [Si1, Di (heptadecanoyloxy) diethylsilan] | 28.1 µg/mL (≈ 45 µM) | 41.5 µg/mL (≈ 66.4 µM) | 37 µg/mL (≈ 59.2 µM) | 37 µg/mL (≈ 59.2 µM) | 50 µg/mL (≈ 80 µM) | 22.8 µg/mL (≈ 36.5 µM) | 26.2 µg/mL (≈ 41.9 µM) | 31.8 µg/mL (≈ 50.9 µM) | 36.2 µg/mL (≈ 57.9 µM) | 30.1 µg/mL (≈ 48.2 µM) | 33.2 µg/mL (≈ 53.1 µM) | 3.0 ± 0,14 | 57,7 ± 0,07 | 15 µg/mL (≈ 24 µM) | 15 µg/mL (≈ 24 µM) | 125 µg/mL (≈ 200 µM) | 6,55 ± 0,49 | 
3 | CCCCCCCCCC(=O)O[Si](CC)(CC)OC(=O)CCCCCCCCC [Si9, Didecanoyloxy - diethylslan] |  |  |  |  |  |  |  |  |  |  |  | 32,1 ± 1,41 | 42,8 ± 1,6 |  |  |  | 0,9 ± 0.0 | IC50 IEC6 ([1]; 200 - 12.5 µg/ml, 4 Tage): 17.2 µg/mL (≈ 40.1 µM); IC50 HT29 (HT29 - Kolonkarzinom; 200 - 12.5 µg/ml, 4 Tage): 41.5 µg/mL (≈ 96.8 µM); IC50 Colo205 (Colo 205 - Kolonkarzinom; 200 - 12.5 µg/ml, 4 Tage): 40.6 µg/mL (≈ 94.7 µM); IC50 BxPC3 (BxPC3 - Pankreaskrebs; 200 - 12.5 µg/ml, 4 Tage): 40.0 µg/mL (≈ 93.3 µM); IC50 MlAPaCa2 (MIAPaCa2 - Pankreaskrebs; 200 - 12.5 µg/ml, 4 Tage): 37.5 µg/mL (≈ 87.5 µM); IC50 CR02B (CRO2B - karzinoid; 200 - 12.5 µg/ml, 4 Tage): 31.5 µg/mL (≈ 73.5 µM); IC50 WI38 ([2]; 200 - 12.5 µg/ml, 4 Tage): 37.0 µg/mL (≈ 86.3 µM); IC50 A431 (A431 Epidermalkarzinom; 200 - 12.5 µg/ml, 4 Tage): 29.4 µg/mL (≈ 68.6 µM); IC50 NIH3T3 ([3]; 200 - 12.5 µg/ml, 4 Tage): 34.4 µg/mL (≈ 80.2 µM); IC50 Normale Zellen (Durchschnitt ± SD) (Normale Zellen; mean over normal cell lines): 29,5 ± 10,8 µg/ml; IC50 Krebszellen (Durchschnitt ± SD) (Krebszellen; mean over cancer cell lines): 35,6 ± 6,0 µg/ml; IC50 T47D (T47D (Brustkrebs); up to 500 µg/ml): 40 µg/mL (≈ 93.3 µM); IC50 BxPC3 ([5]; up to 500 µg/ml): 15 µg/mL (≈ 35 µM); IC50 Colo205 (colo205 (Kofon-Karzinom); up to 500 µg/ml): 60 µg/mL (≈ 140 µM)
4 | CC[Si](CC)(OC(=O)CNC(=O)CNC(=O)CNC(=O)CN)OC(=O)CNC(=O)CNC(=O)CNC(=O)CN [Diethyl bis(tetraglycyl)silylester] (I: H-GGGG / II: H-GGGG; linker I:C-II:C via OSiEt2O) |  |  |  |  |  |  |  |  |  |  |  |  |  |  |  |  |  | Wirkung gegen Medulloblastome (Medulloblastome): zeigen eine Wirkung
